# Compound: COC1=CC=C(C=C1)CN2C=CC3=C2C=C(C=C3)C(=O)NO + CC(=O)Nc1cccc(-n2c(=O)n(C3CC3)c(=O)c3c(Nc4ccc(I)cc4F)n(C)c(=O)c(C)c32)c1 [Trametinib] (partner 0.02 µM)
# Test: relative viability (nuclei count vs DMSO), 5 days (fraction); higher = more cells survive
# Conditions: first compound 0.08 µM
# Outline: (§1)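 Relative viability was taken as the ratio of nuclei in treated wells to nuclei in vehicle wells. Lung cancer cell lines in 1536-well plates received compounds by pin tool one day after seeding, either one drug alone or a fixed anchor-drug dose plus five library-drug doses (not always all listed) in √10 steps. Nuclei were counted on 4× images after 5 days of treatment, and values are medians of duplicate plates.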
row,Cell Line,relative viability
1,LC-2-ad,0.841
2,NCI-H1651,0.798
3,COR-L23,0.5
4,HCC-827,0.539
5,LCLC-103H,0.653
6,RERF-LC-KJ,0.865
7,NCI-H3122,0.276
8,BEN,0.936
9,UMC-11,0.225
10,NCI-H2085,0.528
11,A-427,0.346
12,NCI-H727,0.418
13,NCI-H838,0.346
14,201T,0.769
15,NCI-H1666,0.835
16,NCI-H650,1.07
17,NCI-H1993,0.526
18,HCC-44,1.04
19,NCI-H647,0.481
20,NCI-H2126,0.569
21,NCI-H1755,0.711
22,PC-3 [JPC-3],0.641
23,NCI-H1792,0.459
24,NCI-H2087,0.163
25,NCI-H441,0.353
26,HOP-62,0.362
27,NCI-H2347,0.268
28,NCI-H1355,0.42
29,NCI-H1915,0.282

# Same assay, conditions: first compound 0.253 µM
row,Cell Line,relative viability
1,LC-2-ad,0.899
2,NCI-H1651,0.917
3,COR-L23,0.617
4,HCC-827,0.537
5,LCLC-103H,0.65
6,RERF-LC-KJ,1.06
7,NCI-H3122,0.13
8,BEN,1.03
9,UMC-11,0.708
10,LCLC-97TM1,0.201
11,NCI-H2085,0.665
12,NCI-H727,0.383
13,NCI-H838,0.472
14,201T,0.733
15,LOU-NH91,0.754
16,NCI-H1666,0.881

row,Cell Line,relative viability
1,NCI-H650,0.981
2,ChaGo-K-1,0.924
3,NCI-H1993,0.564
4,HCC-44,1.02
5,NCI-H647,0.365
6,NCI-H2126,0.592
7,NCI-H1755,0.77
8,NCI-H1792,0.426
9,NCI-H2087,0.204
10,NCI-H441,0.491
11,HOP-62,0.399
12,NCI-H2347,0.313
13,HARA,0.607
14,NCI-H1355,0.433
15,NCI-H1915,0.297

# Same assay, conditions: first compound 0.8 µM
row,Cell Line,relative viability
1,LC-2-ad,0.882
2,NCI-H1651,0.867
3,COR-L23,0.627
4,HCC-827,0.528
5,LCLC-103H,0.715
6,RERF-LC-KJ,0.827
7,NCI-H3122,0.225
8,BEN,0.942
9,UMC-11,0.712
10,LCLC-97TM1,0.228
11,NCI-H2085,0.692
12,A-427,0.813
13,NCI-H727,0.377
14,NCI-H838,0.561
15,201T,0.773
16,LOU-NH91,0.778
17,NCI-H1666,0.849

row,Cell Line,relative viability
1,NCI-H650,1
2,ChaGo-K-1,0.887
3,NCI-H1993,0.518
4,HCC-44,0.996
5,NCI-H647,0.493
6,NCI-H2126,0.6
7,NCI-H1755,0.791
8,PC-3 [JPC-3],0.75
9,NCI-H1792,0.394
10,NCI-H2087,0.232
11,NCI-H441,0.61
12,HOP-62,0.371
13,NCI-H2347,0.303
14,HARA,0.668
15,NCI-H1355,0.403
16,NCI-H1915,0.305

# Same assay, conditions: first compound 2.53 µM
row,Cell Line,relative viability
1,LC-2-ad,0.938
2,NCI-H1651,0.787
3,COR-L23,0.615
4,HCC-827,0.533
5,LCLC-103H,0.694
6,RERF-LC-KJ,0.892
7,NCI-H3122,0.217
8,BEN,0.889
9,UMC-11,0.735
10,LCLC-97TM1,0.19
11,NCI-H2085,0.524
12,A-427,0.781
13,NCI-H727,0.37
14,NCI-H838,0.547
15,201T,0.743
16,LOU-NH91,0.808
17,NCI-H1666,0.934

row,Cell Line,relative viability
1,NCI-H650,1.03
2,ChaGo-K-1,0.861
3,NCI-H1993,0.514
4,HCC-44,1.04
5,NCI-H647,0.669
6,NCI-H2126,0.622
7,NCI-H1755,0.758
8,PC-3 [JPC-3],0.702
9,NCI-H1792,0.379
10,NCI-H2087,0.181
11,NCI-H441,0.422
12,HOP-62,0.391
13,NCI-H2347,0.283
14,HARA,0.849
15,NCI-H1355,0.473
16,NCI-H1915,0.32

# Same assay, conditions: first compound 8 µM
row,Cell Line,relative viability
1,LC-2-ad,0.991
2,NCI-H1651,0.828
3,COR-L23,0.522
4,HCC-827,0.514
5,LCLC-103H,0.679
6,RERF-LC-KJ,0.809
7,NCI-H3122,0.222
8,BEN,0.961
9,UMC-11,0.666
10,LCLC-97TM1,0.204
11,NCI-H2085,0.406
12,A-427,0.675
13,NCI-H727,0.371
14,NCI-H838,0.429
15,201T,0.701
16,LOU-NH91,0.766
17,NCI-H1666,0.793

row,Cell Line,relative viability
1,NCI-H650,1.04
2,ChaGo-K-1,0.803
3,NCI-H1993,0.543
4,HCC-44,1.06
5,NCI-H647,0.439
6,NCI-H2126,0.581
7,NCI-H1755,0.753
8,PC-3 [JPC-3],0.683
9,NCI-H1792,0.423
10,NCI-H2087,0.154
11,NCI-H441,0.449
12,HOP-62,0.375
13,NCI-H2347,0.235
14,HARA,0.705
15,NCI-H1355,0.44
16,NCI-H1915,0.31

# Compound: COC1=CC=C(C=C1)CN2C=CC3=C2C=C(C=C3)C(=O)NO + CC(C)C[C@H](NC(=O)[C@H](Cc1ccccc1)NC(=O)c1cnccn1)B(O)O [Bortezomib] (partner 0.002 µM)
# Test: as above
# Conditions: first compound 0.08 µM
# Outline: as §1
row,Cell Line,relative viability
1,LC-2-ad,0.964
2,NCI-H1651,0.923
3,COR-L23,0.93
4,HCC-827,1.01
5,LCLC-103H,0.982
6,RERF-LC-KJ,1.08
7,NCI-H3122,1.06
8,BEN,0.675
9,UMC-11,0.665
10,NCI-H2085,1.05
11,NCI-H727,0.834
12,201T,1.09
13,LOU-NH91,0.387
14,NCI-H1666,0.621
15,NCI-H650,0.832
16,NCI-H1993,0.934
17,HCC-44,0.845
18,NCI-H647,0.789
19,NCI-H2126,1.06
20,NCI-H1755,0.91
21,PC-3 [JPC-3],0.808
22,NCI-H1792,0.95
23,NCI-H2087,0.863
24,NCI-H441,0.331
25,HOP-62,0.893
26,HARA,0.536
27,NCI-H1355,1.1
28,NCI-H1915,0.769

# Same assay, conditions: first compound 0.253 µM
row,Cell Line,relative viability
1,LC-2-ad,0.989
2,NCI-H1651,0.887
3,COR-L23,0.996
4,HCC-827,0.929
5,LCLC-103H,0.998
6,RERF-LC-KJ,1.13
7,NCI-H3122,1.03
8,BEN,0.671
9,UMC-11,0.668
10,LCLC-97TM1,0.333
11,NCI-H2085,1.24
12,A-427,1.01
13,NCI-H727,0.98
14,NCI-H838,0.99
15,201T,1.1
16,LOU-NH91,0.472
17,NCI-H1666,1.02

row,Cell Line,relative viability
1,NCI-H650,0.732
2,ChaGo-K-1,0.752
3,NCI-H1993,1.16
4,HCC-44,0.912
5,NCI-H647,0.929
6,NCI-H2126,1.09
7,NCI-H1755,0.992
8,PC-3 [JPC-3],0.814
9,NCI-H1792,0.945
10,NCI-H2087,0.775
11,NCI-H441,0.406
12,HOP-62,0.841
13,NCI-H2347,0.933
14,HARA,1.22
15,NCI-H1355,1.15
16,NCI-H1915,0.921

# Same assay, conditions: first compound 0.8 µM
row,Cell Line,relative viability
1,LC-2-ad,1
2,NCI-H1651,0.923
3,COR-L23,1.08
4,HCC-827,1.05
5,LCLC-103H,1.11
6,RERF-LC-KJ,1.11
7,NCI-H3122,1.04
8,BEN,0.906
9,UMC-11,0.809
10,LCLC-97TM1,0.791
11,NCI-H2085,1.14
12,A-427,1.04
13,NCI-H727,1.09
14,NCI-H838,0.899
15,201T,1.1
16,LOU-NH91,0.466
17,NCI-H1666,0.782

row,Cell Line,relative viability
1,NCI-H650,0.881
2,ChaGo-K-1,0.962
3,NCI-H1993,1.15
4,HCC-44,0.897
5,NCI-H647,0.848
6,NCI-H2126,1.15
7,NCI-H1755,0.949
8,PC-3 [JPC-3],0.833
9,NCI-H1792,0.979
10,NCI-H2087,0.898
11,NCI-H441,0.543
12,HOP-62,0.912
13,NCI-H2347,0.887
14,HARA,1.15
15,NCI-H1355,1.34
16,NCI-H1915,0.989

# Same assay, conditions: first compound 2.53 µM
row,Cell Line,relative viability
1,LC-2-ad,0.959
2,NCI-H1651,0.888
3,COR-L23,1.03
4,HCC-827,0.896
5,LCLC-103H,1
6,RERF-LC-KJ,1.13
7,NCI-H3122,1.09
8,BEN,0.754
9,UMC-11,0.67
10,LCLC-97TM1,0.734
11,NCI-H2085,1.1
12,A-427,0.994
13,NCI-H727,0.908
14,NCI-H838,0.885
15,201T,1.14
16,LOU-NH91,0.476
17,NCI-H1666,0.84

row,Cell Line,relative viability
1,NCI-H650,0.928
2,ChaGo-K-1,0.942
3,NCI-H1993,1.2
4,HCC-44,0.914
5,NCI-H647,0.846
6,NCI-H2126,1.12
7,NCI-H1755,0.992
8,PC-3 [JPC-3],0.817
9,NCI-H1792,0.931
10,NCI-H2087,0.754
11,NCI-H441,0.497
12,HOP-62,0.853
13,NCI-H2347,0.874
14,HARA,1.12
15,NCI-H1355,1.27
16,NCI-H1915,0.924

# Same assay, conditions: first compound 8 µM
row,Cell Line,relative viability
1,LC-2-ad,0.769
2,NCI-H1651,0.857
3,COR-L23,0.922
4,HCC-827,1.04
5,LCLC-103H,1.06
6,RERF-LC-KJ,1.06
7,NCI-H3122,0.983
8,BEN,0.656
9,UMC-11,0.634
10,LCLC-97TM1,0.527
11,NCI-H2085,1.08
12,A-427,0.931
13,NCI-H727,0.755
14,NCI-H838,0.719
15,201T,1.06
16,LOU-NH91,0.504
17,NCI-H1666,0.774

row,Cell Line,relative viability
1,NCI-H650,0.64
2,ChaGo-K-1,0.868
3,NCI-H1993,1.04
4,HCC-44,0.907
5,NCI-H647,1.11
6,NCI-H2126,1.05
7,NCI-H1755,0.97
8,PC-3 [JPC-3],0.854
9,NCI-H1792,0.7
10,NCI-H2087,0.606
11,NCI-H441,0.413
12,HOP-62,0.946
13,NCI-H2347,0.727
14,HARA,1.13
15,NCI-H1355,1.19
16,NCI-H1915,1.02

# From the supplement of paper PMC10307832
